Here are results for 12 compounds from PubChem BioAssay (NCI).

What all share (assay): NCI tumour cell line growth inhibition, 48 h
For experiment [1], the system named is MOLT-4 leukemia.
In experiment [2] the test system is HCT-15 colon.
The test system of experiment [3] is BT-549 breast.
Experiment [4] concerns HOP-92 NSCLC.
For experiment [5], the system named is 786-0 renal.
In experiment [6] the test system is MDA-N.
Experiment [7] has as its system MDA-MB-231 breast.
The subject of experiment [8] is K-562 leukemia.
Experiment [9] deals with SF-295 CNS.
Experiment [10] deals with DU-145 prostate.
In experiment [11] the test system is MCF7 breast.

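Cultured in 96-well plates, cells were exposed to test compound for 48 hours across five concentrations. TGI: total growth inhibition.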

Turning to `O=C(O)c1ccccc1/C=N\N(CCO)C1=NCCN1`, the TGI in experiment [1], in experiment [2], in [3], in [4], in [5] and in [6] was greater than 100 µM in each case. Besides, the TGI in experiment [7], in [8], in [9], in experiment [10] and in experiment [11] was greater than 100 µM throughout.

For `Cc1nnc(N)nc1C/C=C/C(C)Sc1ccc(Cl)cc1` (configuration not stated), the TGI in experiment [1] is greater than 100 µM; in [2], greater than 54.1 µM; in experiment [3] it was greater than 67.2 µM; in experiment [4], 68.8 µM; in experiment [5], 33.1 µM; in experiment [6], greater than 100 µM. The TGI in experiment [7] is greater than 41.9 µM; in [8], greater than 100 µM; in experiment [9], 11.8 µM; in experiment [10] it was 38.1 µM; in experiment [11], 33.2 µM.

Turning to `Cc1cc(S(=O)(=O)Nc2nnc3c(Cl)cc(C(F)(F)F)cn23)c(S)cc1Cl`, the TGI in experiment [1], in experiment [2], in [3], in [4], in [5] and in [6] was greater than 100 µM in each case. Moreover, the TGI in experiment [7], in experiment [8], in experiment [9], in [10] and in experiment [11] was greater than 100 µM throughout.

`CC(C)C1CCC(=O)CC1CCCCC1CC(=O)CC1O[Si](C)(C)C(C)(C)C` (configuration not stated): the TGI in experiment [1] is 5.5 µM; in experiment [2] it was 21.4 µM; in [3], 13.3 µM; in experiment [4] it was 13.1 µM; in experiment [5] it was 17.1 µM; in experiment [6], 21.1 µM. In addition, the TGI was 40.5 µM in [7]; greater than 34.9 µM in experiment [8]; 25.5 µM in experiment [9]; 39.1 µM in experiment [10]; 27.2 µM in experiment [11].

For `COc1cc(C2SCC(=O)N2c2ccc(Cl)cc2)cc(OC)c1OC` (configuration not stated), the TGI in [1] is 30.7 µM; in experiment [2], greater than 100 µM; in [3], greater than 100 µM; in [4], greater than 100 µM; in experiment [5], 99.6 µM; in experiment [6] it was 20.9 µM. Further, the TGI in experiment [7] is greater than 100 µM; in experiment [8] it was greater than 52.9 µM; in experiment [9], greater than 100 µM; in experiment [10], greater than 100 µM; in experiment [11], greater than 100 µM.

In the case of `NC1C2C=CC(C2)C1C(=O)O` (configuration not stated), the TGI in [1], in [2], in experiment [3], in experiment [4], in [5] and in experiment [6] was greater than 100 µM in each case. The TGI in experiment [7], in experiment [8], in experiment [9], in experiment [10] and in experiment [11] was greater than 100 µM throughout.

Consider `COc1c(N2CCCCC2)c2c(=O)c3ccccc3oc2c2c3ccccc3n(C)c12`, for which the TGI in [1], in experiment [2], in experiment [3], in experiment [4], in [5] and in [6] was greater than 100 µM in each case. Moreover, the TGI in experiment [7], in [8], in experiment [9], in [10] and in [11] was greater than 100 µM each time.

As for `O=C1/C(=C/c2cccc([N+](=O)[O-])c2)Cc2ccccc21`, the TGI in experiment [1], in experiment [2], in experiment [3], in experiment [4], in experiment [5] and in experiment [6] was greater than 100 µM throughout. Besides, the TGI in [7], in [8], in [9], in experiment [10] and in [11] was greater than 100 µM in each case.

On to `CC(C)NC(=O)OCc1c(COC(=O)NC(C)C)c(-c2cc[n+](COC(=O)Cc3ccccc3)cc2)n2c1CCC2`, for which the TGI in [1], in experiment [2], in [3], in [4], in experiment [5] and in experiment [6] was greater than 100 µM in each case. Moreover, the TGI in [7], in experiment [8], in [9], in experiment [10] and in experiment [11] was greater than 100 µM throughout.

On to `COc1ccc(C(SCCO)(c2ccc(OC)cc2)c2ccc(OC)cc2)cc1`, for which the TGI in experiment [1] was found to be 56.4 µM; in experiment [2], 44.6 µM; in experiment [3], 38.4 µM; in [4], 28.8 µM; in [5], 29.7 µM; in [6], 18.1 µM. The TGI is 46.6 µM in [7]; 28.4 µM in [8]; 39.2 µM in experiment [9]; greater than 100 µM in [10]; 31.6 µM in experiment [11].

On to `CC(C)(CN1CCCCC1)C(=O)CC(SCCS(=O)(=O)O)c1ccccc1` (configuration not stated), for which the TGI in [1] turned out to be 36.1 µM; in experiment [2], 42.9 µM; in [3], 49.4 µM; in [4] it was 25.3 µM; in experiment [5] it was 25.4 µM; in experiment [6] it was 34.6 µM. For the same compound, the TGI in [7] came to 32.4 µM; in experiment [8], 29.6 µM; in [9] it was 26.5 µM; in [10], 29.3 µM; in [11], 33.4 µM.

For the compound `CC1=C(C(=O)NNC(=O)c2ccccc2O)CC(C(=O)NNC(=O)c2ccccc2O)=C(C)N1`, the TGI in [1] is greater than 100 µM; in experiment [2], greater than 100 µM; in experiment [3] it was greater than 100 µM; in experiment [4], greater than 100 µM; in experiment [5], greater than 61.7 µM; in [6], greater than 100 µM. In addition, the TGI is greater than 27.9 µM in experiment [7]; greater than 100 µM in experiment [8]; greater than 100 µM in experiment [9]; greater than 93.5 µM in experiment [10]; greater than 48.5 µM in experiment [11].
